Laboratory results: the CheMixHub viscosity set

Experiment: xn = mol fraction of the nth substance listed

Cc1cccc2ccccc12 + CCCCCCC
viscosity [mPa·s], 100 kPa
Conditions | x2 = 0.125 | x2 = 0.25 | x2 = 0.375 | x2 = 0.5 | x2 = 0.625 | x2 = 0.75 | x2 = 0.875
303.15 K | 1.84 | 1.36 | 1.03 | 0.8 | 0.644 | 0.524 | 0.438
323.15 K | 1.3 | 1 | 0.781 | 0.625 | 0.512 | 0.424 | 0.357

C=CCn1cc[n+](C)c1.O=S(=O)([N-]S(=O)(=O)C(F)(F)F)C(F)(F)F + CCCO
Conditions | viscosity [mPa·s]
313.15 K, 100 kPa, x1 = 0.8974 | 15.85

CC(=O)N1CCOCC1 + CC(C)O
viscosity [mPa·s], 101 kPa
Conditions | 293.15 K | 303.15 K | 313.15 K | 323.15 K
x1 = 0.0522 | 3.709 | 2.981 | 2.398 | 2.058
x1 = 0.1274 | 4.822 | 4.027 | 3.33 | 2.819
x1 = 0.2153 | 6.051 | 5.18 | 4.35 | 3.754
x1 = 0.2813 | 6.792 | 5.862 | 4.934 | 4.274
x1 = 0.3169 | 7.055 | 6.069 | 5.112 | 4.418
x1 = 0.3909 | 7.575 | 6.548 | 5.454 | 4.686
x1 = 0.4569 | 7.956 | 6.872 | 5.68 | 4.85
x1 = 0.4999 | 8.044 | 6.922 | 5.666 | 4.794
x1 = 0.5444 | 8.301 | 7.14 | 5.816 | 4.903
x1 = 0.6113 | 8.421 | 7.202 | 5.778 | 4.799
x1 = 0.6342 | 8.356 | 7.116 | 5.656 | 4.656
x1 = 0.6888 | 8.479 | 7.191 | 5.651 | 4.597
x1 = 0.7522 | 8.573 | 7.229 | 5.593 | 4.478
x1 = 0.7976 | 8.575 | 7.191 | 5.487 | 4.328
x1 = 0.8555 | 8.612 | 7.176 | 5.389 | 4.174
x1 = 0.9231 | 8.559 | 7.065 | 5.172 | 3.892
x2 = 0.0188 | 8.649 | 7.104 | 5.163 | 3.893

O=[N+]([O-])c1ccccc1O + CCCCCOC(C)=O
Conditions | viscosity [mPa·s]
298.15 K, 101 kPa, x1 = 0.5 | 1.051

O=[N+]([O-])c1ccccc1O + Cc1ccccc1
viscosity [mPa·s], 101 kPa
Conditions | 303.15 K | 308.15 K | 313.15 K | 318.15 K | 323.15 K
x1 = 0.5473 | 1.278 | 1.182 | 1.088 | 1.011 | 0.942
x1 = 0.7633 | – | 1.838 | 1.672 | 1.528 | 1.411

CCCCCCCCCO + c1ccccc1
viscosity [mPa·s], 100 kPa
Conditions | x2 = 0.0841 | x2 = 0.1721 | x2 = 0.2502 | x2 = 0.3634 | x2 = 0.4529 | x2 = 0.5631 | x2 = 0.6508 | x2 = 0.7569 | x2 = 0.8448 | x2 = 0.9503
293.15 K | 9.518 | 7.891 | 6.648 | 5.055 | 3.95 | 2.851 | 2.158 | 1.469 | 1.089 | 0.766
303.15 K | 6.477 | 5.231 | 4.302 | 3.268 | 2.618 | 1.931 | 1.474 | 1.067 | 0.824 | 0.628
313.15 K | 4.537 | 3.665 | 3.011 | 2.228 | 1.762 | 1.327 | 1.045 | 0.807 | 0.675 | 0.542
323.15 K | 3.323 | 2.677 | 2.203 | 1.656 | 1.318 | 1.005 | 0.817 | 0.662 | 0.56 | 0.474

CC(=O)OCCC1CCCCC1 + CCCCCCCCCCO
viscosity [mPa·s], 101 kPa
Conditions | 300 K | 310 K | 320 K
x2 = 0.1066 | 2.65 | 2.14 | 1.77
x2 = 0.1534 | 2.74 | 2.2 | 1.82
x2 = 0.2863 | 2.94 | 2.34 | 1.91
x2 = 0.337 | 3.14 | 2.46 | 2.01
x2 = 0.4105 | 3.47 | 2.72 | 2.15
x2 = 0.4983 | 3.91 | 3.02 | 2.41
x2 = 0.5476 | 4.25 | 3.26 | 2.56
x2 = 0.6306 | 4.92 | 3.76 | 2.93
x2 = 0.702 | 5.57 | 4.15 | 3.18
x2 = 0.7382 | 5.93 | 4.4 | 3.37
x2 = 0.8402 | 7.22 | 5.25 | 3.94
x2 = 0.9332 | 8.92 | 6.35 | 4.67
